Experiments:
VERPE = experiment: Post-emergence herbicidal effect, greenhouse pot test; format: in vivo, Veronica persica; settings: 320 g/ha
Outline: (§1)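 Weeds sown in sandy loam, greenhouse-grown 2–3 weeks, then sprayed at one-leaf stage with WP or EC formulations in water plus 0.5% additive at 600 l/ha. Rates 20 to 320 g/ha. Visual rating after about 3 weeks versus untreated controls (100% = plants dead, 0% = like control).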

TRZAS = experiment: Post-emergence herbicidal effect and crop plant compatibility, greenhouse pot test; format: in vivo, Triticum aestivum; settings: for Post-emergence effect at 20 g/ha against TRZAS in %: one-leaf stage, rated visually after about 3 weeks vs untreated controls; for Post-emergence effect against TRZAS: visual rating about 3 weeks after treatment, crop plant
Outline: (§2)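 Greenhouse pot plants in sandy loam receive a one-leaf-stage spray at 20 to 320 g/ha. Activity is assessed visually around 3 weeks afterwards on a 0–100% scale, where 100% means the plants have died.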

PHBPU = experiment: Post-emergence herbicidal effect, greenhouse pot test; format: in vivo, Ipomoea purpurea; settings: 320 g/ha
Outline: as §1

ZEAMX = experiment: Post-emergence herbicidal effect and crop plant compatibility, greenhouse pot test; format: in vivo, Zea mays; settings: one-leaf stage, rated visually after about 3 weeks vs untreated controls
Outline: as §2

AVEFA = experiment: Post-emergence herbicidal effect, greenhouse pot test; format: in vivo, Avena fatua; settings: 320 g/ha, visual rating about 3 weeks after treatment
Outline: as §1

POLCO = experiment: as above; format: in vivo, Fallopia convolvulus; settings: 320 g/ha
Outline: as §1

GLXMA = experiment: Post-emergence herbicidal effect and crop plant compatibility, greenhouse pot test; format: in vivo, Glycine max; settings: 20 g/ha, visual rating about 3 weeks after treatment, crop plant
Description: • ALOMY: Alopecurus myosuroides SETVI: Setaria viridis • AVEFA: Avena fatua POLCO: Fallopia convolvulus • AMARE: Amaranthus retroflexus ECHCG: Echinochloa crus-galli • LOLRJ: Lolium rigidum STEME: Stellaria media • VERPE: Veronica persica MATIN: Tripleurospermum inodorum • DIGSA: Digitaria sanguinalis ABUTH: Abutylon threophrasti • TRZAS: Triticum aestivum VIOTR: Viola tricolor • BRSNW: Brassica napus ZEAMX: Zea mays • PHBPU: Ipomoea purpurea GLXMA: Glycine max • ORYSA: Oryza sativa HORMU: Hordeum murinum
Seeds of monocotyledonous and dicotyledonous weeds and crop plants are placed in sandy loam in plastic or organic planting pots, covered with soil and cultivated in a greenhouse under controlled growth conditions. 2 to 3 weeks after sowing, the trial plants are treated at the one-leaf stage. The compounds of the invention, formulated in the form of wettable powders (WP) or as emulsion concentrates (EC), are then sprayed onto the green parts of the plants as aqueous suspension or emulsion with addition of 0.5% additive at a water application rate of 600 l/ha (converted). After the test plants have been kept in the greenhouse under optimum growth conditions for about 3 weeks, the activity of the preparations is rated visually in comparison to untreated controls. For example, 100% activity=the plants have died, 0% activity=like control plants.
Tables 20a to 38c below show the effects/crop compatibilities of selected compounds of the general formula (I) on various harmful plants at an application rate corresponding to 20 to 320 g/ha, which were obtained by the trial procedure specified above.

ECHCG = experiment: Post-emergence herbicidal effect, greenhouse pot test; format: in vivo, Echinochloa crus-galli
Outline: as §1

SETVI = experiment: as above; format: in vivo, Setaria viridis; settings: 320 g/ha
Outline: as §1

ABUTH = experiment: as above; format: in vivo, Abutilon theophrasti; settings: visual rating about 3 weeks after treatment
Outline: as §1

AMARE = experiment: as above; format: in vivo, Amaranthus retroflexus; settings: 320 g/ha, visual rating about 3 weeks after treatment
Outline: as §1

Structure (SMILES)	Post-emergence effect against VERPE in % (VERPE) [%]	Post-emergence effect at 20 g/ha against TRZAS in % (TRZAS) [%]	Post-emergence effect against TRZAS (TRZAS; 80 g/ha) [%]	Post-emergence effect against PHBPU in % (PHBPU) [%]	Post-emergence effect at 20 g/ha against ZEAMX in % (ZEAMX) [%]	Post-emergence effect at 80 g/ha against ZEAMX in % (ZEAMX; 80 g/ha) [%]	Post-emergence effect against AVEFA (AVEFA) [%]	Post-emergence effect against POLCO in % (POLCO) [%]	Post-emergence effect against GLXMA (GLXMA) [%]	Post-emergence effect against TRZAS (TRZAS; 320 g/ha) [%]	Post-emergence effect against ECHCG in % (ECHCG; 80 g/ha) [%]	Post-emergence effect against ECHCG in % (ECHCG; 320 g/ha) [%]	Post-emergence effect against SETVI in % (SETVI) [%]	Post-emergence effect against ABUTH (ABUTH; 80 g/ha) [%]	Post-emergence effect against ABUTH (ABUTH; 320 g/ha) [%]	Post-emergence effect against AMARE (AMARE) [%]
COC(=O)C(OC)Oc1nn(-c2ccccc2F)c(-c2ccc(F)nc2)c1C(F)(F)C(F)(F)F (stereo not drawn) [Example I-60]	80	0	0	90	0	0	80	90	10							
COC(Oc1nn(-c2cccc(C)c2F)c(-c2ccnc(F)c2)c1Br)C(=O)O (stereo not drawn) [Example I-92]		0	10	80	20				10	20	80	90	80			
COC(=O)C(OC)Oc1nn(-c2cccc(C)c2F)c(-c2ccc(F)nc2)c1C1CC1 (stereo not drawn) [Example I-93]		0	10	80	10				20	20				80	90	90
